# BindingDB's records for doi:10.1016/j.bmcl.2009.04.116 (Banyu Pharmaceutical, 2009)
# Molecular target: Nociceptin receptor (Homo sapiens, UniProt P41146)
# Assay: In Vitro Binding Assay (IC50) and In Vitro Agonism/Antagonism Measurements (EC50/IC50)
# Conditions: not given
# Protocol: IC50 values are calculated using GraphPad Prism. Agonist/antagonist activities were measured by the [35S]GTPgamma-S binding to proteins using membrane fractions of CHO cells expressing ORL1. Nonspecific binding is determined in the presence of 10 uM unlabeled GTPgammaS. Membrane-bound radioactivity is measured using a TopCount-HTS (PerkinElmer). Specific binding of [35S]GTPgammaS is determined as a difference between the control (in the presence of appropriate concentration of nociceptin), and the baseline (in the presence of DMSO instead of compound). EC50/IC50 values are calculated from % of specific binding in the presence of various concentration of the compound using GraphPad Prism 3.03.
# Sequence of Nociceptin receptor (P41146 whole entry): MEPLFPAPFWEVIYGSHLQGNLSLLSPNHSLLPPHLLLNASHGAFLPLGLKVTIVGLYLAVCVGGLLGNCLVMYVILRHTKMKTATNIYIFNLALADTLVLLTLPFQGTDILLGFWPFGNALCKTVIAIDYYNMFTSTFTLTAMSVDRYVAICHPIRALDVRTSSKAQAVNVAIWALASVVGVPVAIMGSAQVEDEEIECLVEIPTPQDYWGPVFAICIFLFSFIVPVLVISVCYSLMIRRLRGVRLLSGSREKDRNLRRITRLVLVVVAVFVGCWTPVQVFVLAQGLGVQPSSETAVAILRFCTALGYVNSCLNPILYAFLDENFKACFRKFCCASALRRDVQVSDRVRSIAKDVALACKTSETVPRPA
row,SMILES,EC50
1,"Cc1ccc(-c2c(C)c(CNC3CCC(F)(F)C3)nn2-c2ncccc2Cl)cn1 (stereo not drawn) [arylpyrazole, 29]",4.5 nM
2,"Cc1ncc(-c2c(C)c(CN[C@H]3CC[C@@H](F)C3)nn2-c2ncccc2Cl)cc1F [arylpyrazole, 31]",0.31 nM
3,"Cc1ncc(-c2c(C)c(CNC3CCCC3)nn2-c2ncccc2Cl)cc1F [arylpyrazole, 30]",1.2 nM

# Next, values leading:
row,EC50,SMILES
1,1 nM,"Cc1ccc(-c2c(C)c(CN[C@H]3CC[C@@H](F)C3)nn2-c2ncccc2Cl)cn1 [arylpyrazole, 28]"
2,7.1 nM,"Cc1ccc(-c2c(C)c(CNC3CCCC3F)nn2-c2ncccc2Cl)cn1 (stereo not drawn) [arylpyrazole, 27]"

# Same assay, conditions: pH 7.4; 37 °C
row,EC50,SMILES
1,4.7 nM,"Cc1ccc(-c2c(C)c(CNC3CCCC3)nn2-c2ncccc2Cl)cn1 [arylpyrazole, 19]"
2,480 nM,"Cc1c(CNC(C)C)nn(-c2ccc(Cl)cc2Cl)c1-c1ccc(Cl)cc1 [arylpyrazole, 1]"
3,12 nM,"Cc1c(CNC2CCCC2)nn(-c2ncccc2Cl)c1-c1ccc(Cl)nc1 [arylpyrazole, 18]"
